Measurements as given in US6395735B2, “Pharmaceutical compounds” (Eli Lilly and Company, priority 1997, dated 2002).

How the values were obtained:
human m1 receptor = target: T1, human m1 receptor (Homo sapiens, UniProt P11229); assay: m1 primary assay: arachidonic acid release in CHO-m1 cells; assay type: cell-based
T1 construct: expressed in transfected cells; host or cells: CHO (Chinese hamster) cells
T1 sequence (P11229 1-460): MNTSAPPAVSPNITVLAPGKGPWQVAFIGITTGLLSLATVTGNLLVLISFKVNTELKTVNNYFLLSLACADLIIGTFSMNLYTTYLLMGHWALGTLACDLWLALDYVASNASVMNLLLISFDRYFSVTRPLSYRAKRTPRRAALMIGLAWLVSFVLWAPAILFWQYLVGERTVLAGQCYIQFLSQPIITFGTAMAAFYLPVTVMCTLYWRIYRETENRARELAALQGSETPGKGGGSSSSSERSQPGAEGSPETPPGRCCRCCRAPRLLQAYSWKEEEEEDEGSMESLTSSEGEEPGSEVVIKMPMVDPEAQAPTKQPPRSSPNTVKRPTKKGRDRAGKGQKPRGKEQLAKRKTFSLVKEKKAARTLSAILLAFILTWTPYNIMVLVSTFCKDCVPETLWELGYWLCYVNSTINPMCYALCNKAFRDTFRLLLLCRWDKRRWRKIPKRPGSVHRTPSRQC
Experimental: CHO (Chinese hamster transfected with the human m1 receptor (CHO-m1) were grown to confluency in flasks using Dulbecco's Modified Eagle Medium (DMEM) containing 10% fetal bovine serum. Cells were detached with 0.05% trypsin, 0.53 mM EDTA. Cells were collected after centrifugation in a Beckman centrifuge at 1000 rpm for 10 minutes, diluted with culture medium (400,000 cells/ml) Aarachidonic acid was added to the cell solution at a 1:2000 ratio of a 1 mCi/ml stock and cells were plated at 40,000 cells per well into 96 well plates and incubated for 18 to 24 hours at 37 C and 5% CO2. Following the incubation, the medium was removed and the cells were washed with D-ME medium containing 2 mg/mL of fatty acid free BSA (250 L/well). The test compound of interest was diluted in D-ME-BSA and added to each well (150 L/well), incubated for 120 minutes at 37 C in 5% CO2. 80 µL of supernatant was transferred to Wallac 96 well plates containing 110 µL/well of Supermax scintillation cocktail at pH 9.0. Plates were counted in a Wallae microbeta counter.
Representative results from the m1 primary assay are as follows: […]

A9L-m1 = target: T2, A9L-m1 (Homo sapiens, UniProt P11229); assay: m1 secondary assay: PI stimulation in A9L-m1; assay type: cell-based; details: for Emax: A9L-m1, relative to carbachol, read-out: Pl stim. A9L-m1 % Max of carbachol; for EC50: A9L-m1, read-out: ED-50 Pl stim A9L-m1, nm
T2 sequence (P11229 1-460): T1 sequence (P11229 1-460)

Row | Max. % activity @ 5 μM (human m1 receptor) [%] | SMILES | Emax (A9L-m1) [%] | EC50 (A9L-m1) [nM]
1 | 76.7 | O=C(NC1c2cc(/N=C/N3CCCC3)ccc2CC1O)c1cccc(C(F)(F)F)c1 (centres unmarked) [Compound 123] | – | –
2 | 82.2 | C/C(=N\c1ccc2c(c1)C(NC(=O)c1cccc(C(F)(F)F)c1)C(O)C2)N(C)C (centres unmarked) [Compound 124] | – | –
3 | 114.0 | CN1CCC/C1=N\c1ccc2c(c1)C(NC(=O)c1ccc(-c3ccccc3)cc1)[C@H](O)C2 (some centres unmarked) [Compound 125] | – | –
4 | 102.2 | CN(C)/C=N/c1ccc2c(c1)C(NC(=O)c1cccc(C(F)(F)F)c1)C(O)C2.Cl (centres unmarked) [Compound 126] | – | –
5 | 69.8 | CN(C)/C=N/c1ccc2c(c1)C(NC(=O)c1ccc(Cl)c(Cl)c1)C(O)C2.Cl (centres unmarked) [Compound 127] | – | –
6 | 75.9 | O=C(NC1c2cc(/N=C/N3CCCC3)ccc2C[C@H]1O)c1ccc(-c2ccccc2)cc1 (some centres unmarked) [Compound 134] | – | –

Second part, the compound before the results:

Row | SMILES | Max. % activity @ 5 μM (human m1 receptor) [%] | Emax (A9L-m1) [%] | EC50 (A9L-m1) [nM]
7 | CN(C)/C=N/c1ccc2c(c1)[C@@H](NC(=O)c1ccc(Cl)cc1)[C@H](O)C2 [Compound 118] | 57.4 | – | –
8 | O=C(N[C@@H]1c2cc(/N=C/N3CCOCC3)ccc2C[C@H]1O)c1ccc(-c2ccccc2)cc1 [Compound 119] | 66.4 | – | –
9 | O=C(N[C@@H]1c2cc(/N=C/N3CCCC3)ccc2C[C@H]1O)c1ccc(-c2ccccc2)cc1 [Compound 120] | 92.5 | – | –
10 | O=C(N[C@@H]1c2cc(/N=C/N3CCCC3)ccc2C[C@H]1O)c1ccc(Cl)c(Cl)c1 [Compound 121] | 45.4 | – | –
11 | O=C(NC1c2cc(/N=C/N3CCCC3)ccc2C[C@H]1O)c1ccc(Cl)cc1 (some centres unmarked) [Compound 122] | 80.9 | – | –
12 | O=C(NC1c2cc(/N=C/N3CCCC3)ccc2C[C@@H]1O)c1ccc(F)c(Br)c1 (some centres unmarked) [Compound 131] | – | 70.5 | 43.6
13 | Cc1ccc(C(=O)NC2c3cc(/N=C/N4CCCC4)ccc3C[C@@H]2O)cc1Br (some centres unmarked) [Compound 132] | – | 59 | 183
14 | O=C(NC1c2cc(/N=C/N3CCCC3)ccc2C[C@@H]1O)c1ccc(F)c(Cl)c1 (some centres unmarked) [Compound 133] | – | 40 | 190
